Data taken from the NIST ThermoML archive (doi:10.1021/acs.jced.8b00554).
± gives the expanded uncertainty stated by the source.

Experiment: xn = mol fraction of the nth substance listed
Conditions: Liquid, Vibrating tube method

CCCCCCCC [octane] + CCCO
mass density [kg/m3]
Conditions	323.15 K	333.15 K
100 kPa, x2 = 0.1631	–	675.2 ± 4.3
100 kPa, x2 = 0.2111	–	677.49 ± 4.3
100 kPa, x2 = 0.3158	–	683.44 ± 4.4
100 kPa, x2 = 0.4411	–	692.56 ± 4.4
100 kPa, x2 = 0.7301	–	721.13 ± 4.6
100 kPa, x2 = 0.8823	–	744.98 ± 4.8
1000 kPa, x2 = 0.2111	–	678.54 ± 4.3
1000 kPa, x2 = 0.3158	–	684.58 ± 4.4
1010 kPa, x2 = 0.1631	–	676.35 ± 4.3
1010 kPa, x2 = 0.4411	–	694.32 ± 4.5
1010 kPa, x2 = 0.8823	–	745.82 ± 4.8
1020 kPa, x2 = 0.7301	–	722.21 ± 4.6
2010 kPa, x2 = 0.1631	–	677.44 ± 4.3
2010 kPa, x2 = 0.2111	–	679.63 ± 4.3
2010 kPa, x2 = 0.3158	–	685.64 ± 4.4
2010 kPa, x2 = 0.4411	–	695.36 ± 4.5
2010 kPa, x2 = 0.7301	–	723.26 ± 4.6
2010 kPa, x2 = 0.8823	–	746.82 ± 4.8
3000 kPa, x2 = 0.2111	–	680.7 ± 4.4
3000 kPa, x2 = 0.3158	–	686.7 ± 4.4
3010 kPa, x2 = 0.1631	–	678.49 ± 4.3
3010 kPa, x2 = 0.7301	–	724.3 ± 4.6
3020 kPa, x2 = 0.4411	–	696.43 ± 4.5
3020 kPa, x2 = 0.8823	–	747.84 ± 4.8
4000 kPa, x2 = 0.3158	–	687.78 ± 4.4
4000 kPa, x2 = 0.4411	–	697.47 ± 4.5
4000 kPa, x2 = 0.7301	–	725.32 ± 4.7
4010 kPa, x2 = 0.2111	–	681.76 ± 4.4
4010 kPa, x2 = 0.8823	–	748.84 ± 4.8
4020 kPa, x2 = 0.1631	–	679.56 ± 4.3
5000 kPa, x2 = 0.8823	–	749.83 ± 4.8
5010 kPa, x2 = 0.2111	–	682.8 ± 4.4
5020 kPa, x2 = 0.1631	–	680.6 ± 4.4
5020 kPa, x2 = 0.3158	–	688.8 ± 4.4
5020 kPa, x2 = 0.4411	–	698.53 ± 4.5
5020 kPa, x2 = 0.7301	–	726.33 ± 4.7
6000 kPa, x2 = 0.2111	–	683.81 ± 4.4
6010 kPa, x2 = 0.3158	–	689.87 ± 4.4
6010 kPa, x2 = 0.4411	–	699.54 ± 4.5
6010 kPa, x2 = 0.7301	–	727.35 ± 4.7
6010 kPa, x2 = 0.8823	–	750.8 ± 4.8
6020 kPa, x2 = 0.1631	–	681.62 ± 4.4
7000 kPa, x2 = 0.1631	–	682.67 ± 4.4
7000 kPa, x2 = 0.2111	–	684.85 ± 4.4
7000 kPa, x2 = 0.3158	–	690.9 ± 4.4
7010 kPa, x2 = 0.4411	–	700.57 ± 4.5
7010 kPa, x2 = 0.8823	–	751.79 ± 4.8
7020 kPa, x2 = 0.7301	–	728.39 ± 4.7
8000 kPa, x2 = 0.8823	–	752.76 ± 4.8
8010 kPa, x2 = 0.1631	–	683.7 ± 4.4
8010 kPa, x2 = 0.7301	–	729.39 ± 4.7
8020 kPa, x2 = 0.2111	–	685.89 ± 4.4
8020 kPa, x2 = 0.3158	–	691.91 ± 4.4
8020 kPa, x2 = 0.4411	–	701.57 ± 4.5
9000 kPa, x2 = 0.4411	–	702.6 ± 4.5
9010 kPa, x2 = 0.1631	–	684.68 ± 4.4
9010 kPa, x2 = 0.2111	–	686.89 ± 4.4
9010 kPa, x2 = 0.3158	–	692.93 ± 4.4
9010 kPa, x2 = 0.7301	–	730.37 ± 4.7
9010 kPa, x2 = 0.8823	–	753.69 ± 4.8
10000 kPa, x2 = 0.2111	–	687.87 ± 4.4
10000 kPa, x2 = 0.8823	–	754.64 ± 4.8
10010 kPa, x2 = 0.3158	702.83 ± 4.5	693.93 ± 4.5
10010 kPa, x2 = 0.4411	711.7 ± 4.6	–
10010 kPa, x2 = 0.7301	–	731.35 ± 4.7
10010 kPa, x2 = 0.8823	763.66 ± 4.9	–
10020 kPa, x2 = 0.1631	–	685.68 ± 4.4
10020 kPa, x2 = 0.4411	–	703.57 ± 4.5
11000 kPa, x2 = 0.1631	695.13 ± 4.5	–
11000 kPa, x2 = 0.3158	–	694.92 ± 4.5
11010 kPa, x2 = 0.1631	–	686.66 ± 4.4
11010 kPa, x2 = 0.2111	697.62 ± 4.5	–
11010 kPa, x2 = 0.3158	703.75 ± 4.5	–
11010 kPa, x2 = 0.4411	712.61 ± 4.6	704.56 ± 4.5
11010 kPa, x2 = 0.7301	741.5 ± 4.8	732.33 ± 4.7
11010 kPa, x2 = 0.8823	764.53 ± 4.9	755.6 ± 4.8
11020 kPa, x2 = 0.2111	–	688.87 ± 4.4
12000 kPa, x2 = 0.2111	–	689.87 ± 4.4
12000 kPa, x2 = 0.3158	704.66 ± 4.5	–
12000 kPa, x2 = 0.4411	–	705.54 ± 4.5
12010 kPa, x2 = 0.7301	742.41 ± 4.8	–
12010 kPa, x2 = 0.8823	765.37 ± 4.9	756.54 ± 4.8
12020 kPa, x2 = 0.1631	696.03 ± 4.5	687.66 ± 4.4
12020 kPa, x2 = 0.2111	698.52 ± 4.5	–
12020 kPa, x2 = 0.3158	–	695.9 ± 4.5
12020 kPa, x2 = 0.4411	713.53 ± 4.6	–
12020 kPa, x2 = 0.7301	–	733.28 ± 4.7
13000 kPa, x2 = 0.8823	766.25 ± 4.9	757.44 ± 4.8
13010 kPa, x2 = 0.2111	699.43 ± 4.5	–
13010 kPa, x2 = 0.3158	–	696.87 ± 4.5
13010 kPa, x2 = 0.4411	714.42 ± 4.6	–
13010 kPa, x2 = 0.7301	743.29 ± 4.8	–
13020 kPa, x2 = 0.1631	696.94 ± 4.5	688.62 ± 4.4
13020 kPa, x2 = 0.2111	–	690.84 ± 4.4
13020 kPa, x2 = 0.3158	705.56 ± 4.5	–
13020 kPa, x2 = 0.4411	–	706.46 ± 4.5
13020 kPa, x2 = 0.7301	–	734.24 ± 4.7
14010 kPa, x2 = 0.1631	697.82 ± 4.5	–
14010 kPa, x2 = 0.2111	700.32 ± 4.5	691.78 ± 4.4
14010 kPa, x2 = 0.3158	706.45 ± 4.5	697.84 ± 4.5
14010 kPa, x2 = 0.4411	715.31 ± 4.6	707.42 ± 4.5
14010 kPa, x2 = 0.8823	767.11 ± 4.9	758.35 ± 4.9
14020 kPa, x2 = 0.1631	–	689.54 ± 4.4
14020 kPa, x2 = 0.7301	744.18 ± 4.8	735.17 ± 4.7
15000 kPa, x2 = 0.1631	–	690.49 ± 4.4
15000 kPa, x2 = 0.2111	–	692.73 ± 4.4
15000 kPa, x2 = 0.7301	745.04 ± 4.8	–
15000 kPa, x2 = 0.8823	767.94 ± 4.9	–
15010 kPa, x2 = 0.1631	698.72 ± 4.5	–
15010 kPa, x2 = 0.2111	701.21 ± 4.5	–
15010 kPa, x2 = 0.4411	–	708.36 ± 4.5
15020 kPa, x2 = 0.3158	707.35 ± 4.5	698.76 ± 4.5
15020 kPa, x2 = 0.4411	716.17 ± 4.6	–
15020 kPa, x2 = 0.7301	–	736.09 ± 4.7
15020 kPa, x2 = 0.8823	–	759.26 ± 4.9
16000 kPa, x2 = 0.1631	–	691.42 ± 4.4
16000 kPa, x2 = 0.3158	708.22 ± 4.5	–
16000 kPa, x2 = 0.4411	–	709.26 ± 4.5
16000 kPa, x2 = 0.7301	745.87 ± 4.8	–
16010 kPa, x2 = 0.1631	699.58 ± 4.5	–
16010 kPa, x2 = 0.2111	–	693.66 ± 4.5
16010 kPa, x2 = 0.3158	–	699.72 ± 4.5
16010 kPa, x2 = 0.4411	717.04 ± 4.6	–
16010 kPa, x2 = 0.8823	768.77 ± 4.9	760.14 ± 4.9
16020 kPa, x2 = 0.2111	702.08 ± 4.5	–
16020 kPa, x2 = 0.7301	–	737.02 ± 4.7
17000 kPa, x2 = 0.1631	700.41 ± 4.5	–
17010 kPa, x2 = 0.2111	702.95 ± 4.5	694.6 ± 4.5
17010 kPa, x2 = 0.3158	709.05 ± 4.5	700.63 ± 4.5
17010 kPa, x2 = 0.4411	717.88 ± 4.6	710.16 ± 4.6
17010 kPa, x2 = 0.7301	–	737.93 ± 4.7
17020 kPa, x2 = 0.1631	–	692.33 ± 4.4
17020 kPa, x2 = 0.7301	746.73 ± 4.8	–
17020 kPa, x2 = 0.8823	769.6 ± 4.9	761.01 ± 4.9
18000 kPa, x2 = 0.1631	701.27 ± 4.5	693.25 ± 4.5
18000 kPa, x2 = 0.2111	703.77 ± 4.5	–
18010 kPa, x2 = 0.3158	709.93 ± 4.5	701.51 ± 4.5
18010 kPa, x2 = 0.4411	718.73 ± 4.6	711.06 ± 4.6
18010 kPa, x2 = 0.7301	747.56 ± 4.8	738.78 ± 4.7
18010 kPa, x2 = 0.8823	770.4 ± 4.9	761.87 ± 4.9
18020 kPa, x2 = 0.2111	–	695.49 ± 4.5
19000 kPa, x2 = 0.1631	–	694.12 ± 4.5
19000 kPa, x2 = 0.3158	–	702.41 ± 4.5
19000 kPa, x2 = 0.7301	–	739.68 ± 4.7
19000 kPa, x2 = 0.8823	–	762.72 ± 4.9
19010 kPa, x2 = 0.1631	702.08 ± 4.5	–
19010 kPa, x2 = 0.2111	704.61 ± 4.5	696.36 ± 4.5
19010 kPa, x2 = 0.3158	710.75 ± 4.6	–
19010 kPa, x2 = 0.4411	719.58 ± 4.6	–
19010 kPa, x2 = 0.7301	748.4 ± 4.8	–
19020 kPa, x2 = 0.4411	–	711.94 ± 4.6
19020 kPa, x2 = 0.8823	771.2 ± 4.9	–
20000 kPa, x2 = 0.1631	–	694.96 ± 4.5
20000 kPa, x2 = 0.2111	–	697.38 ± 4.5
20010 kPa, x2 = 0.1631	702.9 ± 4.5	–
20010 kPa, x2 = 0.2111	705.43 ± 4.5	–
20010 kPa, x2 = 0.3158	–	703.29 ± 4.5
20010 kPa, x2 = 0.4411	720.41 ± 4.6	–
20010 kPa, x2 = 0.7301	749.2 ± 4.8	740.54 ± 4.8
20010 kPa, x2 = 0.8823	772.02 ± 5	763.55 ± 4.9
20020 kPa, x2 = 0.3158	711.56 ± 4.6	–
20020 kPa, x2 = 0.4411	–	711.91 ± 4.6
